Like-named read-outs stand apart in the source and are kept apart here.
Legend:
post-irradiated tumors = details: cited from earlier work
CCL3, CCL4, and CXCL13 = details: CLL; cited from earlier work
[1] = test system: haematological malignancies; details: cited from earlier work
[2] = Human pharmacokinetic prediction based on non-human animal studies
Protocol: Based on non-human animal studies, a predicted human dose to achieve exposure at the IC90 for PI3K-γ is approximately 2 mg. […] In some embodiments, the dose (e.g., a therapeutically effective dose) is about 2 mg, 1-3 mg, 1-5 mg, 1-10 mg, 0.5-20 mg, 0.1-50 mg, 0.1-75 mg, 0.5-75 mg, 1-75 mg, 0.1-100 mg, 0.5-100 mg, or 1-100 mg. In some embodiments, the dose is about 1-10 mg. In some embodiments, the dose is about 1-50 mg. In some embodiments, the dose is about 1-100 mg. In a 70 kg human, a 2 mg dose corresponds to 0.029 mg/kg.

PI3K α = PI3K α (Homo sapiens (Human), UniProt P42336); assay: PI3-Kinase Promega ADP-Glo Max assay; assay type: biochemical
Protocol: (§3) Promega ADP-Glo Max assay kit (Cat. No. V7002) was utilized to determine IC50 values for α, β, δ and γ isoforms of human Class I PI3 kinases (Millipore). […] Reactions were incubated at room temperature for 2 hours followed by addition of 25 uL of stop solution. After a 40-minute incubation at room temperature, 50 uL of Promega detection mix was added followed by incubation for 1 hour at room temperature. Plates were then read on Envision plate reader in lunimescence mode. Data was converted to % inhibition using the following equation below:
(§4) [formula] where S is the sample luminescence, Pos is a positive control without added PI3K, Neg is the negative control without added compound. Data was then plotted as % inhibition vs compound concentration.

PI3K β = PI3K β (Homo sapiens (Human), UniProt P42338); assay: PI3-Kinase Promega ADP-Glo Max assay; assay type: biochemical
PI3K-δ in RAJI cells = PI3K-δ in RAJI cells (Homo sapiens (Human), UniProt O00329); assay: RAJI p110 δ assay (PI3K-δ selective cellular assay, phospho-AKT); assay type: cell-based
Chain of PI3K-δ in RAJI cells (O00329 whole entry): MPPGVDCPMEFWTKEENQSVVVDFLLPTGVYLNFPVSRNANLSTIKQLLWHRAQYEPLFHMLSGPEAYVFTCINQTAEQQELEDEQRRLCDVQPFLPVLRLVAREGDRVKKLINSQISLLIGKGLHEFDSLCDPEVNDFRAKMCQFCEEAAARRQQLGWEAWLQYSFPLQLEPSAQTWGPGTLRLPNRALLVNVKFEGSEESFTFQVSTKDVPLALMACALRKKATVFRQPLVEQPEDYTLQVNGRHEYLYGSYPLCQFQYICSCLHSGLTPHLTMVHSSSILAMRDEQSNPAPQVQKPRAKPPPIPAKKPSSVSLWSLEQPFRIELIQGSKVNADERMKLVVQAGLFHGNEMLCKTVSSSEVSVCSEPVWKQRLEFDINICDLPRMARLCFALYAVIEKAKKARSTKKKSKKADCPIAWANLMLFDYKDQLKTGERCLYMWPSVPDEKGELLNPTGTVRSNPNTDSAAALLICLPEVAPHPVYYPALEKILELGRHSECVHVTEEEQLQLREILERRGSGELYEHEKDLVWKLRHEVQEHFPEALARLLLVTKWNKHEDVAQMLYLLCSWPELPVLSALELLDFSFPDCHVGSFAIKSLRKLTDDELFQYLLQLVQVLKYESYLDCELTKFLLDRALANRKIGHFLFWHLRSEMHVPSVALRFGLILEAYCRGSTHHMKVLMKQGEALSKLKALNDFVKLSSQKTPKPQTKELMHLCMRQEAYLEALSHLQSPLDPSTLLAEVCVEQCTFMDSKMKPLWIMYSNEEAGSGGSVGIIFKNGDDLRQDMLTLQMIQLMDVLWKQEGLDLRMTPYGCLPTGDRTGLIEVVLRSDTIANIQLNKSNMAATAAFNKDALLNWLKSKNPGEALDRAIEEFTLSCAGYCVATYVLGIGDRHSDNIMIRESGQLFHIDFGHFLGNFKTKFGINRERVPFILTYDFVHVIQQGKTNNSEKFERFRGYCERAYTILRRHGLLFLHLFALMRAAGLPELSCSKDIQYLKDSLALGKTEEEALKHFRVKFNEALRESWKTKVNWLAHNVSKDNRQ
Chain of PI3K-δ in RAJI cells (P27986 whole entry partner): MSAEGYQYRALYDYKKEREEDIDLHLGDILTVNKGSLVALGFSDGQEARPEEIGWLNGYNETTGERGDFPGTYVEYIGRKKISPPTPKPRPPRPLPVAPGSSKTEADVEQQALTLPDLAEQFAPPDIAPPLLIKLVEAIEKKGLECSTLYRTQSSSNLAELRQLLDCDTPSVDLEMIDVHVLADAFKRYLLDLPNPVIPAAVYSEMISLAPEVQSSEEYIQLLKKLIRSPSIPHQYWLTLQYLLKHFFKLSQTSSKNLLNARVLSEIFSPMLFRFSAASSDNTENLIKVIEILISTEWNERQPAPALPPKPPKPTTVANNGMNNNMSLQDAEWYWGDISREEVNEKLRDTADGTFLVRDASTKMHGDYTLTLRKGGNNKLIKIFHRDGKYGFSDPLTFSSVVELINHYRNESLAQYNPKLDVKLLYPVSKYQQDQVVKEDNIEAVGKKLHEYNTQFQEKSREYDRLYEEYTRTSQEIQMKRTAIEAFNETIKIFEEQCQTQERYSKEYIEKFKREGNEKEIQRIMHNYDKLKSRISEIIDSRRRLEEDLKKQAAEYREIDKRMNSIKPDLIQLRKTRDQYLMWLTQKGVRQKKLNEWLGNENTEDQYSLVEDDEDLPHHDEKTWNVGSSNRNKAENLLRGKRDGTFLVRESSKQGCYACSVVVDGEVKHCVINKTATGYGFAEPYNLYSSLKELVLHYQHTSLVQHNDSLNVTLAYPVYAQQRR

PI3K γ = PI3K γ (Homo sapiens (Human), UniProt P48736); assay: PI3-Kinase Promega ADP-Glo Max assay; assay type: biochemical
Chain of PI3K γ (P48736 whole entry): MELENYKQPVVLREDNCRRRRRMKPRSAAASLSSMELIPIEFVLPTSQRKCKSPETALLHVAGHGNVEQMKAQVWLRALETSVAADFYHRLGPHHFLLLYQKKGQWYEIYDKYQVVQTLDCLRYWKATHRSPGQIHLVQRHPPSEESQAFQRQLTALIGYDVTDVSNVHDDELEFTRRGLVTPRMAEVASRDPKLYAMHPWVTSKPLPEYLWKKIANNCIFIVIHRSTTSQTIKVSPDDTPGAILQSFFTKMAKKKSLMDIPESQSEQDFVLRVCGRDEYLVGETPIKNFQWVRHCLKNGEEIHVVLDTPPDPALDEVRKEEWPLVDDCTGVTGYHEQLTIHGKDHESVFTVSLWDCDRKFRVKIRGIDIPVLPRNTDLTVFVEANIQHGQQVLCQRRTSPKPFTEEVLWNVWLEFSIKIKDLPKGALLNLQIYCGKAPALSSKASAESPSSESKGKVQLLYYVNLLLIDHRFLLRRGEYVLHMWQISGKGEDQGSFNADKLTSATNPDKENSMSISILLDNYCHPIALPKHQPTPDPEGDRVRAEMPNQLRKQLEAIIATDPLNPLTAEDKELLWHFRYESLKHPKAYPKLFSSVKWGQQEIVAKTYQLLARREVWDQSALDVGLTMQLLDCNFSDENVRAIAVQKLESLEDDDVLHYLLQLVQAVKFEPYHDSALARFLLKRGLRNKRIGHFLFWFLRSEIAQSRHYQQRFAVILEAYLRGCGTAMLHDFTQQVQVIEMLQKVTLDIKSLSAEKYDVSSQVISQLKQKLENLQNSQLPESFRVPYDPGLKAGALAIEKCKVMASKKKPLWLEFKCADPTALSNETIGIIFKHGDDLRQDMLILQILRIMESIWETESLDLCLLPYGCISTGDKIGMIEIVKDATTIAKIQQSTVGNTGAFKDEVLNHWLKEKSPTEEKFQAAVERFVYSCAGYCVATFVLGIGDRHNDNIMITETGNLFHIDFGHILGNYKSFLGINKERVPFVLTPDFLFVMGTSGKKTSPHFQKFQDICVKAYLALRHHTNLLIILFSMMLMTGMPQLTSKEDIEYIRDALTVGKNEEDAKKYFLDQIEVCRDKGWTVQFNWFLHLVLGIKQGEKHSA
Protocol: as §3, §4

[3] = Mouse pharmacokinetics, oral single and repeat dose; assay type: in vivo; details: for tlast / AUC(0-t) / Cmax / Tmax / AUC(0-inf) / half-life: female C57 mice; for AUC(0-t): female, C57, mouse, po; for AUC(0-t) / Cmax / Tmax / AUC(0-inf) / half-life: plasma; for Cmax / Tmax / AUC(0-inf) / half-life: mouse
Protocol: Animals were weighed daily prior to dosing. […] On subsequent dosing days, the animals' condition was noted prior to dosing; the animals were observed within 4 hours of dosing, and at the end of the day.
Samples were collected at pre-dose 0.25, 0.5, 1, 2, 4, 6 and 24 h following the first dose on day 1 and pre-dose (trough), 0.25, 0.5, 1, 2, 4, 6 and 24 h following the final dose on day 3 Animals received a single oral dose daily for 3 consecutive days. Blood was collected by retro-orbital bleeding for all time points on day 1. All other blood sampling was collected by a cardiac puncture. Blood was collected into K2EDTA tubes and placed on wet ice. Within 15 min of collection, the sample was centrifuged at 10,000 rpm at 4° C. for 10 min in a bench top centrifuge and the plasma transferred to a new microcentrifuge tube.
A similar study was carried out using Compound 88. […] Below is a table that details the results for Compound 88: […]

[4] = target: PI3K-γ in RAW264.7 macrophages (Mus musculus (Mouse), UniProt Q9JHG7); assay: Raw264.7 p110 γ assay (PI3K-γ selective cellular assay, C5a-stimulated phospho-AKT); assay type: cell-based
Chain of PI3K-γ in RAW264.7 macrophages (Q9JHG7 whole entry): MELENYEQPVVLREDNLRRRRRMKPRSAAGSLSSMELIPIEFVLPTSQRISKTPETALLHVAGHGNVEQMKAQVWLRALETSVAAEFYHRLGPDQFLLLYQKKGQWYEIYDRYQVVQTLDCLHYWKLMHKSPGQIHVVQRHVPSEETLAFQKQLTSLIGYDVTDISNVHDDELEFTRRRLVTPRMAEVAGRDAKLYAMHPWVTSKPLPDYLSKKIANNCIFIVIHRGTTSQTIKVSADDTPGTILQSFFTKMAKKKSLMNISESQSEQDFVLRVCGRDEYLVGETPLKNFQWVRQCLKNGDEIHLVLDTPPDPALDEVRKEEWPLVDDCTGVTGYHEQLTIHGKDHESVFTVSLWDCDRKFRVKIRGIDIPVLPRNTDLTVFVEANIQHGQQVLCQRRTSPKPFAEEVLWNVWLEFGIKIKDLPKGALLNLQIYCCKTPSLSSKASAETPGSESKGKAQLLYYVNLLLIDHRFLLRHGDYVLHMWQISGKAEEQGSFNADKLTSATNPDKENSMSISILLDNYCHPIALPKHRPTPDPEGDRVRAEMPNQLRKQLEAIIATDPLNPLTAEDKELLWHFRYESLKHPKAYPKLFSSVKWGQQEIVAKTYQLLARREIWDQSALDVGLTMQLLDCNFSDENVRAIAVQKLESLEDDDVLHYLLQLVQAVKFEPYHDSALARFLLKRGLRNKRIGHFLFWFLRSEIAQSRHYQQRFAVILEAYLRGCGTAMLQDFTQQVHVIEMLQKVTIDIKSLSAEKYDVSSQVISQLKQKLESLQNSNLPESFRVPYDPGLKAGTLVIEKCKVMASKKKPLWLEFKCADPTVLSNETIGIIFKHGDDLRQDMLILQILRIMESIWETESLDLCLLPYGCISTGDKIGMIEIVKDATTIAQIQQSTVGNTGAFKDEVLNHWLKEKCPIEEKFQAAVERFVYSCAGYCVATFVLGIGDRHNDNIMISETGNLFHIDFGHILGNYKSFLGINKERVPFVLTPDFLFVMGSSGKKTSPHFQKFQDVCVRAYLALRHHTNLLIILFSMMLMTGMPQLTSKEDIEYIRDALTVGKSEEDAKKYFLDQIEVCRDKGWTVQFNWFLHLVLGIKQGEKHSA
From the text: Briefly, serum-starved RAW264.7 cells are stimulated with a known GPCR agonist C5a. […] Cells can be treated with test compounds prior to, simultaneously with, or subsequent to the stimulation by C5a. RAW 264.7 cells respond to the complement component fragment C5a through activation of the C5a receptor, and the C5a receptor activates macrophages and induces cell migration.

PI3K δ = PI3K δ (Homo sapiens (Human), UniProt O00329); assay: PI3-Kinase Promega ADP-Glo Max assay; assay type: biochemical
Chain of PI3K δ (O00329 whole entry): as the sequence (O00329 whole entry) above
Chain of PI3K δ (P27986 whole entry partner): as the sequence (P27986 whole entry partner) above
Protocol: as §3, §4

human T cells = assay: Concanavalin A-induced model for activation of human T cells (IFN-γ); assay type: cell-based
PI3K-delta = PI3K-delta (Homo sapiens (Human), UniProt O00329); details: as described in Table 4 of WO2013/032591; cited from earlier work
Chain of PI3K-delta (O00329 whole entry, species assumed, the tested form may be a part): as the sequence (O00329 whole entry) above
Chain of PI3K-delta (P27986 whole entry partner, species assumed, the tested form may be a part): as the sequence (P27986 whole entry partner) above

[5] = test system: IL-8 induced neutrophil migration; assay: IL-8 driven murine air pouch model; details: mouse air pouch; BB 0.1-3 mg/kg, AA 10-50 mg/kg
[6] = test system: LPS induced neutrophil influx in bronchoalveolar lavage fluid; assay: LPS-induced neutrophilia, oral administration; assay type: in vivo; details: rat, p.o., 4 hours post-LPS challenge, dose dependent
Protocol: (§1) This study also includes assessment of the exposure to the compounds in plasma and lung tissues.
(§2) Ref C is budesonide p.o. The compound was administered p.o. and about 1 hour later, LPS was administered intra-tracheally and plasma was collected. After about 5 hours, plasma and bronchoalveolar lavage samples were collected.

[7] = Oral PK in the rat LPS studies (free plasma concentration); assay type: in vivo; details: for concentration at 1.5 h / concentration at […]: plasma, po, read-out: Free Plasma Conc; for concentration at […]: 5.5h
Protocol: as §1, §2

PI3K-α in SKOV-3 cells = PI3K-α in SKOV-3 cells (Homo sapiens (Human), UniProt P42336, H1047R); assay: PI3K-α selective cellular assay (phospho-AKT); assay type: cell-based
PI3K-β in 786-O cells = PI3K-β in 786-O cells (Homo sapiens (Human), UniProt P42338); assay: PI3K-β selective cellular assay (phospho-AKT); assay type: cell-based
[8] = test system: CXCL12 induced p-AKT in polarized bone marrow derived macrophages; assay: CXCL12-induced p-AKT induction assay in differentiated macrophages; assay type: cell-based, mouse
From the text: Macrophage Differentiation and Polarization: Long bones from young C57B6 mice were harvested and bone marrow was extruded by gentle lavage of the bone marrow cavities with a 28 gauge needle. Red blood cells were removed using red blood cell lysis buffer (Sigma). Bone marrow cells were differentiated to macrophages using MCSF for 6 days (RPMI and 20% FCS) with one media change (with removal of all non-adherent cells) at day 3. Macrophages were polarized into MO (MCSF), M1 (MCSF, IFNγ, and LPS for 1 day), or M2 (MCSF, IL4 for 2 days).
CXCL12-Induced p-AKT Induction Assay: Polarized macrophages were lifted with Acutase, and plated at 0.5M cells per well (0.5 ml) in a deep well (2 ml) non adherant plate in polarization media for 1 hour. […] CXCL12 was added, and the cells were mixed on a plate shaker for 2 minutes. 1 ml of 37 degree FACS Lyse/fix buffer (BD bioscience) was added and the plate was mixed for 1 minute. The plates were spun and decanted and frozen at −80° C. Phospho AKT staining with anti Phospho AKT 473 PERCP labeled (Cell Signaling Technologies) was performed and measured by flow cytometry. Total cell MFI was used to calculate the effect of tested compound on CXCL12 induction of phospho AKT.

LLC tumor brei = LLC tumor brei model with or without cyclophosphamide (tumor growth, FACS); assay type: in vivo, mouse; details: Compound BB 15 mg/kg QD PO; cyclophosphamide 50 mg/kg EOD IP
Protocol: In this experiment, treatment began when tumors reached approx. 150 mm^3—around day 12. Caliper and xenogen images were monitored. Treatment groups n=13-15/group. […] Samples for FACs analysis were collected on day 23 post implant. Using FACS, cells were assayed for the level of CD11b and Gr-1.

For `c1cc(CN2CCCNCCNCCCNCC2)ccc1CN1CCCNCCNCCCNCC1` [AMD3100], the “tumor vasculogenesis and tumor regrowth” value (post-irradiated tumors) is listed as “blocked tumor vasculogenesis and tumor regrowth”.

In the case of `CC[C@H](Nc1ncnc2[nH]cnc12)c1nc2cccc(F)c2c(=O)n1-c1ccccc1` [CAL-101], the “expression of stromal and T-cell derived factors including CCL3, CCL4, and CXCL13” value (CCL3, CCL4, and CXCL13) is listed as “suppresses the expression”, the “lymph node and lymphocyte response in CLL patients” value ([1]; CLL patients) is listed as “induces rapid lymph node reduction and redistribution of lymphocytes into the circulation” and the “single agent clinical activity in lymphoma” value ([1]; mantle cell lymphoma and refractory non Hodgkin's lymphoma) is listed as “active in mantle cell lymphoma”. The “clinical activity in CLL” value ([1]; phase 1 trial, patients with poor prognostic characteristics) was “showed activity in CLL”.

With `C[C@H](NC(=O)c1c(N)nn2cccnc12)c1cc2cccc(C#Cc3cnn(C)c3)c2c(=O)n1-c1ccccc1` [Compound 4] the “predicted human dose to achieve exposure at the IC90 for PI3K-γ” value [2] was “approximately 2 mg”.

Work on `Cc1c(C#Cc2cccc3nc([C@H](C)NC(=O)c4c(N)nn5cccnc45)n(-c4ccccc4)c(=O)c23)cnn1C` [Compound 88, (S)-2-amino-N-(1-(5-((1,5-dimethyl-1H-pyrazol-4-yl)ethynyl)-4-oxo-3-phenyl-3,4-dihydroquinazolin-2-yl)ethyl)pyrazolo[1,5-a]pyrimidine-3-carboxamide] yielded an IC50 (PI3K α) of 5000 to 10000 nM, an IC50 (PI3K β) of 5000 to 10000 nM and an IC50 (PI3K-δ in RAJI cells; phospho-AKT, read-out: RAJI p110 δ assay IC50) of 100 to 500 nM. The IC50 (PI3K γ) was 100 to 500 nM, the “PI3K δ/PI3K γ IC50 (selectivity)” value (PI3K γ) was “X (key: V = 0.1 to 1; W = >1 to <10; X = 10 to <50; Y = 50 to <850)” and the tlast ([3]; 2 mg/kg PO NMP) was 8 h. The tlast ([3]; 7.5 mg/kg PO NMP) was 24 h, the tlast ([3]; 15 mg/kg PO NMP) was 24 h and the “stability in serum (unbound plasma concentration time course)” value ([3]; female mice, 2, 7.5, 15 mg/kg PO) was “good stability in serum”. For the same compound, the AUC(0-t) ([3]; 2 mg/kg, 2 mg/kg PO NMP, read-out: AUC0-8) was 3890 ng·h/mL, the AUC(0-t) ([3]; 2 mg/kg, 2 mg/kg PO NMP, read-out: AUClast) was 3890 ng·h/mL and the AUC(0-t) ([3]; 7.5 mg/kg, 7.5 mg/kg PO NMP, read-out: AUC0-8) was 15800 ng·h/mL. For the same compound, the AUC(0-t) ([3]; 7.5 mg/kg, 7.5 mg/kg PO NMP, read-out: AUClast) was 20600 ng·h/mL, the AUC(0-t) ([3]; 15 mg/kg, 15 mg/kg PO NMP, read-out: AUC0-8) was 34600 ng·h/mL and the AUC(0-t) ([3]; 15 mg/kg, 15 mg/kg PO NMP, read-out: AUClast) was 71700 ng·h/mL. The Cmax ([3]; 2 mg/kg PO NMP) was 654 ng/mL, the Tmax ([3]; 2 mg/kg PO NMP) was 2 h and the AUC(0-inf) ([3]; 7.5 mg/kg PO NMP) was 20700 ng·h/mL. It also gave a Cmax ([3]; 7.5 mg/kg PO NMP) of 3700 ng/mL, a Tmax ([3]; 7.5 mg/kg PO NMP) of 1 h and a half-life ([3]; 7.5 mg/kg PO NMP) of 2.8 h. It also gave an AUC(0-inf) ([3]; 15 mg/kg PO NMP) of 81200 ng·h/mL, a Cmax ([3]; 15 mg/kg PO NMP) of 5700 ng/mL and a Tmax ([3]; 15 mg/kg PO NMP) of 1 h. For the same compound, the half-life ([3]; 15 mg/kg PO NMP) was 7.9 h, the “RAJIδ/Raw264.7 γ IC50 (selectivity)” value [4] was “Y (key: V = 0.1 to 1; W = >1 to <10; X = 10 to <50; Y = 50 to <850)” and the IC50 ([4]; phospho-AKT, read-out: Raw264.7 p110 γ assay IC50) was 1 to 50 nM. The IC50 (PI3K δ) was 5000 to 10000 nM.

In the case of `CC(C)n1c([C@H](C)Nc2ncnc(N)c2C#N)cc2cccc(-c3ccc(=O)n(C)c3)c2c1=O` [Compound AA, reference compound], the “inhibition of IFN-γ” value (human T cells) is given as “highly selective inhibitor of IFN-γ”, the IC50 (PI3K-delta) is given as less than 100 nM and the “IL-8 induced neutrophil migration” value [5] is given as “does not inhibit IL-8 induced neutrophil migration”. The “neutrophil in bronchoalveolar lavage fluid (BALF)” value [6] was “reduced neutrophil”, the IC50 (PI3K-δ in RAJI cells; read-out: Cellular IC50 δ) was 0.1 nM and the “Free Plasma Conc” value ([7]; p.o. 0.2 mg/kg, 1.5h) was “BLQ”. The concentration at 1.5 h ([7]; p.o. 1 mg/kg, 1.5h) was 1.8 nM, the concentration at […] ([7]; p.o. 1 mg/kg) was 1.1 nM and the concentration at 1.5 h ([7]; p.o. 5 mg/kg, 1.5h) was 17.8 nM. For the same compound, the concentration at […] ([7]; p.o. 5 mg/kg) was 4.6 nM, the IC50 (PI3K-α in SKOV-3 cells) was 1900 nM and the IC50 ([4]; read-out: Cellular IC50 γ) was 418 nM. For the same compound, the gamma/delta selectivity ratio (PI3K δ; IC50 against PI3K gamma divided by IC50 against PI3K delta) was “greater than 50”, the IC50 (PI3K-β in 786-O cells) was 102 nM and the “IC50, CXCL12 induced p-AKT” value ([8]; differentiated and M1 polarized macrophage) was “did not significantly inhibit”. The “IC50, CXCL12 induced p-AKT” value ([8]; differentiated and M2 polarized macrophage) was “did not significantly inhibit”.

For `O=P1(N(CCCl)CCCl)NCCCO1` (stereo not drawn) [cyclophosphamide, reference compound], the “tumor growth, LLC tumor brei model” value (LLC tumor brei) was “reduced tumor growth”.

— patent publication US9775844B2, “Heterocyclic compounds and uses thereof” (Infinity Pharmaceuticals, Inc., priority 2014, dated 2017)
